Experimental data reported in patent US11401516B2, “Channel modulators” (AUCKLAND UNISERVICES LIMITED, priority 2014, dated 2022).
“Also recorded” adds a separate entry of the source.

How the values were obtained:
[1] = molecular target: T1, Cx43 GJ plaques in ARPE-19 cells (Homo sapiens, UniProt P17302); experiment: Immunocytochemistry and quantification of Cx43 plaques; assay type: cell-based
T1 construct: a native human cell line, retinal pigmented epithelial cells (ARPE-19), which reportedly has an abundant expression of Cx43; endogenous in cells; host or cells: ARPE-19
Experimental: (§1) In the below Examples 3, 6 and 7 using human retinal epithelial (ARPE-19) cells, the cells were grown in DMEM/F: 12 (Invitrogen), supplemented with 10% fetal calf serum (FCS), 100 units/mL of penicillin, 100 μg/mL of streptomycin, and 0.25 μg/mL of Fungizone® Antimycotic (Invitrogen).
Cells were seeded at 0.05×10^6 per well in 8-well sterile glass microscope chamber slides (Falcon, Corning Life Sciences), and the monolayer was labeled for connexin expression at ˜90-100% confluency. The following steps were conducted at room temperature. Cells were fixed in 4% paraformaldehyde (P6148, Sigma-Aldrich) in PBS with 0.1 mM CaCl2 for 10 min, and washed three times in PBS with 0.1 mM CaCl2. After blocking in 10% normal goat serum in PBS with 0.1 mM CaCl2 for one hour, cells were incubated overnight in primary antibody solution (rabbit anti-Cx43, Sigma C6219) diluted in PBS with 0.1 mM CaCl2. The chamber slides were then washed three times with PBS containing 0.1 mM CaCl2 for 10 minutes, and incubated for a further 45 minutes in goat anti-rabbit Alexa 568 conjugated secondary antibody (Invitrogen #A11036). Cells were counter labeled with DAPI for 5 minutes and washed three times with PBS containing 0.1 mM CaCl2. Chamber wells were removed and cells were mounted anti-fade medium (Citiflour AF-1). Dilution ratios for specified primary and secondary antibodies were used according to manufacturer's recommendations.
ARPE-19 cells were grown until confluent in 8-well glass chamber-slides (BD Falcon). Confluent monolayers of ARPE-19 cells were incubated at a final concentration of 5 to 500 μM) Tonabersat, and/or 10 mM NH4Cl (H. Qin, et al., The Journal of biological chemistry 278, 30005 (Aug. 8, 2003)) in culture medium for 1 or 6 hours. Cells were fixed in 4% PFA (ProSciTech) at pH 7.4 for 10 min at room temperature, permeabilized with 0.05% Triton-X100 in PBS, and incubated in 10% normal goat serum to block non-specific labelling. Cells were rinsed three times with PBS containing 0.1 mM CaCl2 between each fixation, permeabilization, and blocking steps. Cx43 polyclonal rabbit antibody (C6219, Sigma, 1:2000) was applied for 24 hours, followed by a goat anti-rabbit Alexa Fluor® 568 secondary antibody (Invitrogen, 1:200) for 45 minutes. Nuclei were counterstained with DAPI (Invitrogen) at 10,000-fold dilution for 5 mins, and mounted with Citifluor™ mounting medium. Images were visualised and captured using a 63× oil immersion lens on an Olympus FV1000 upright confocal laser scanning microscope and software. The transfluor feature in MetaXpress® Image acquisition and analysis software (Version 5.3.0.1, Molecular Devices) was used to automate and quantify the total area of Cx43 plaques per image. Results represent mean±standard error and statistical tests were conducted using one-way ANOVA and Tukey's multiple comparisons test.

[2] = test system: Cx43 mRNA in ARPE-19 cells; experiment: Real-time reverse transcription PCR of Cx43 mRNA; assay type: cell-based, human; conditions: 50 μM, 1 h, versus untreated and vehicle controls
Experimental: as §1
Real time reverse transcription PCR was used to determine the relative level of Cx43 mRNA. A confluent monolayer of ARPE-19 cells was treated with Tonabersat for 1 hour. Cells were harvested with TRIzol® (Life Technologies), and total RNA was isolated using […] according to manufacturer's instructions. All RNA samples were quantified using a nanodrop 1000 micro volume spectrophotometer (Thermo Scientific). cDNA from samples were synthesised using SuperScript® III First-Strand Synthesis SuperMix (Invitrogen) according to manufacturer's instructions. Primer sequences for hCx43, GenBank Accession No. M65188.1, were obtained from the Harvard Primer bank. […] The appropriate reference gene to be used for relative fold-difference in Cx43 mRNA was determined by screening commonly used house-keeping genes, ß-actin [ACTB], Hypoxanthine phosphoribosyltransferase 1 [HPRT1], peptidylprolyl isomerase A [PPIA], and glyceraldehyde-3-phosphate dehydrogenase [GAPDH]. […] Relative changes in Cx43 mRNA expression were calculated as fold-differences against ß-actin using the 2-ΔΔCt method. […]

T1 sequence (P17302 2-382 limits assumed): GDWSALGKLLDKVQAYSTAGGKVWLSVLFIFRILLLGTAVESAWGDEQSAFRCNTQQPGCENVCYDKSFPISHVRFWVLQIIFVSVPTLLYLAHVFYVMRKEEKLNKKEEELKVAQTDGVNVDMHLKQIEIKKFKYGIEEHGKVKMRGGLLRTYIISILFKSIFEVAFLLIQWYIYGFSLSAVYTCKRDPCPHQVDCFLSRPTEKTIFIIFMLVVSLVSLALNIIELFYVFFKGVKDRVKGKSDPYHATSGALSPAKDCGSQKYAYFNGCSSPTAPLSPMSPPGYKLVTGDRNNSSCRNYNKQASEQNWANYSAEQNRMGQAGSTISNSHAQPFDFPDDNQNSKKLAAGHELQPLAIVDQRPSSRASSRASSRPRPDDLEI

CC(=O)c1ccc2c(c1)[C@H](NC(=O)c1ccc(F)c(Cl)c1)[C@H](O)C(C)(C)O2 [Tonabersat, N-[(3S,4S)-6-acetyl-3-hydroxy-2,2-dimethyl-3,4-dihydrochromen-4-yl]-3-chloro-4-fluorobenzamide]
total area of Cx43 plaques per cell, normalized to untreated control ([1]; 5 μM, 10 μM or 50 μM, 1 hour): no significant reduction in Cx43 plaques
Connexin43 gap junction labelling ([1]; 50 μM, 6 hours): most junctions have been internalised or lost; also recorded: total gap junction loss at cell-cell interfaces
increase in Cx43 labelling with 10 mM NH4Cl compared to Tonabersat alone ([1]; 100 μM, 1 hour): 104.8%
total area of Cx43 plaques per cell, normalized to untreated control ([1]; 100 μM, 1 hour): 52.8±5.6%
total area of Cx43 plaques per cell, normalized to untreated control ([1]; 100 μM, 6 hours): 66.5±5.4%
increase in Cx43 labelling with 10 mM NH4Cl compared to Tonabersat alone ([1]; 200 μM, 1 hour): 65.4%
total area of Cx43 plaques per cell, normalized to untreated control ([1]; 200 μM, 1 hour): 63.2±5.6%
total area of Cx43 plaques per cell, normalized to untreated control ([1]; 200 μM, 6 hours): 62.5±2.3%
total area of Cx43 plaques per cell, normalized to untreated control ([1]; 500 μM, 6 hours): 60.2±13.6%
Connexin43 gap junction labelling ([1]; 100 micromolar, 6 hours): very little Connexin43 labelling remains
Cx43 mRNA level relative to ß-actin [2]: no significant difference in Cx43 mRNA
